From US10011615B2, “Heterobicyclo-substituted [1,2,4]triazolo[1,5-c]quinazolin-5-amine compounds with A2A anatagonist properties” (Merck Sharp & Dohme Corp., priority 2012, dated 2018)
Structures can show the parent of a compound that is named as a salt.

Target: T1, human A2a receptor (Homo sapiens, UniProt P29274)
T1 construct: purchased Perkin-Elmer RBHA2AM400UA; host or cells: HEK293 cell membranes
Assay: A2a receptor competition binding assay using Scintillation Proximity technology
Settings: membranes from HEK293 cells expressing human A2a receptor; 0.5 nM tritiated radioligand; SPA beads; 1 h room temperature
Description: Binding affinities of compounds of the invention for the human A2a receptor were determined in a competition binding assay using Scintillation Proximity technology. Thus, 0.3 μg of membranes from HEK293 cells expressing the human A2a receptor were incubated with a compound of the invention at concentrations ranging from 3000 nM to 0.15 nM in a reaction mixture containing also 0.5 nM of a tritiated form of 5-amino-7-[2-phenethyl]-2-(furan-2-yl)-7H-pyrazolo[4,3-e][1,2,4]triazolo[1,5-c]pyrimidine (the tritiated compound) and 100 μg of wheat germ agglutin-coated yttrium silicate SPA beads for one hour at room temperature with agitation. The beads were then allowed to settle to the bottom of the wells for 1 hr, after which the membrane-associated radioactivity was determined by scintillation counting in a TopCount microplate reader. Ki values were determined using the Cheng-Prusoff equation.
Summary of Materials and Methods Used in A2a Activity Determination:
HEK293 cells expressing the human, rat, dog or monkey adenosine 2a receptor (Purchased from Perkin-Elmer # RBHA2AM400UA).
The Tritiated compound was prepared in-house by MRL Radiochemistry according to published methods.
Wheat germ agglutinin-coated yttrium silicate SPA beads (GE Healthcare#RPNQ0023). Dilute to 25 mg/ml in assay buffer.
Assay Buffer was prepared in house: Dulbecco's calcium and magnesium free phosphate buffered saline+10 mM MgCl2
Adenosine deaminase from calf intestine, 10 mg/2 ml (Roche) 10 102 105 001).
A2a antagonist standard (9-chloro-1-(2-furanyl)-[1,2,4]triazolo1,5-c]quinazolin-5-amine from Tocris Bioscience)
Make eight 1:3 serial dilutions in 100% DMSO from a 3 mM compound stock
Transfer 50 nl of compound into a 384-well OptiPlate (Perkin Elmer).
Typically, final concentrations of compound used in the assay ranged from 3000 nM to 0.152 nM.
Dilute a solution of the Tritiated compound to 1.25 nM in assay buffer. This is a 2.5× solution. The final concentration in the assay is 0.5 nM. Calculate the concentration by counting two 5 μl aliquots.
Use 0.25 ug of membrane/well. Dilute membranes to 9.7 μg/ml in assay buffer. Treat with 20 ug/ml adenosine deaminase (ADA) for 15 minutes at room temperature to degrade endogenous adenosine.
Use 100 μg/well wheat germ agglutinin-coated yttrium silicate SPA beads.
Mix ADA-treated membranes and SPA beads together for 30 min prior to assay.
To the Perkin-Elmer Optiplate-384 containing the compound titration add 20 μl of 2.5× solution of the Tritiated compound and 30 μl of the membrane-bead mixture. Incubate for one hour at room temperature with agitation.
Include total binding (assay buffer+1% DMSO) and non-specific binding (CGS15943, 1 μM) wells.
Allow the beads to settle for one hour.
A curve fitting program (i.e., Prism, Activity Base, Chemcart) is used to determine the EC50. The Ki value is calculated using the Cheng-Prusoff equation: K i=EC50/(1+(radioligand concentration/Kd)).

T1 sequence (P29274 whole entry): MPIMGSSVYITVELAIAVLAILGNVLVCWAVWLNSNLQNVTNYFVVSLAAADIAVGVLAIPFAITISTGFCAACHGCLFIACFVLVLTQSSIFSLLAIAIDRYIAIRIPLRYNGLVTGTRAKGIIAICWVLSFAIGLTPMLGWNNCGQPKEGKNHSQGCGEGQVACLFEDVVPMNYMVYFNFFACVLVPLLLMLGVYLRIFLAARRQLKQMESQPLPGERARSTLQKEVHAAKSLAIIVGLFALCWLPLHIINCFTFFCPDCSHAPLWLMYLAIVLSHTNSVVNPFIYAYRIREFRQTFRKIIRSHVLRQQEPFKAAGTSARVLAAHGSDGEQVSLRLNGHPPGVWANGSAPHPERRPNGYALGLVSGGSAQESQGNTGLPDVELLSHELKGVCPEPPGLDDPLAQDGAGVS

SMILES | EC50 [nM]
COc1cccc2c1nc(N)n1nc(CCN3CCc4ccc(-c5cnc(C(F)(F)F)nc5)cc4C3)nc21 [Ex-187, 7-methoxy-2-(2-(7-(2-(trifluoromethyl)pyrimidin-5-yl)-3,4-dihydroisoquinolin-2(1H)-yl)ethyl)-[1,2,4]triazolo[1,5-c]quinazolin-5-amine] | 2.9
COc1cccc2c1nc(N)n1nc(CCN3CCc4nc(C5CC5)oc4C3)nc21 [Ex-31, 2-(2-(2-cyclopropyl-6,7-dihydrooxazolo[5,4-c]pyridin-5(4H)-yl)ethyl)-7-methoxy[1,2,4]triazolo[1,5-c]quinazolin-5-amine] | 1.3
Nc1nc2cc(F)ccc2c2nc(CCN3Cc4cccnc4C3)nn12 [Ex-92] | 73.7
COc1cccc2c1nc(N)n1nc(CN3CCCc4ccncc43)nc21 [Ex-135, 2-((3,4-dihydro-1,7-naphthyridin-1(2H)-yl)methyl)-7-methoxy-[1,2,4]triazolo[1,5-c]quinazolin-5-amine] | 11.8
Nc1nc2c(Cl)cccc2c2nc(CCN3Cc4ccc(F)cc4C3)nn12 [Ex-80, 7-chloro-2-(2-(5-fluoroisoindolin-2-yl)ethyl)-[1,2,4]triazolo[1,5-c]quinazolin-5-amine] | 12
COc1cccc2c1nc(N)n1nc(CN3CCc4nccnc4C3)nc21 [Ex-150, 2-((7,8-dihydropyrido[4,3-b]pyrazin-6(5H)-yl)methyl)-7-methoxy-[1,2,4]triazolo[1,5-c]quinazolin-5-amine] | 27.6
COc1cccc2c1nc(N)n1nc(CN3CCc4cc(Br)cnc43)nc21 [Ex-155, 2-((5-bromo-2,3-dihydro-1H-pyrrolo[2,3-b]pyridin-1-yl)methyl)-7-methoxy-[1,2,4]triazolo[1,5-c]quinazolin-5-amine] | 2.2
COc1cccc2c1nc(N)n1nc(CCN3CCc4nc(C)oc4C3)nc21 [Ex-28, 7-methoxy-2-(2-(2-methyl-6,7-dihydrooxazolo[5,4-c]pyridin-5(4H)-yl)ethyl)-[1,2,4]triazolo[1,5-c]quinazolin-5-amine] | 2.2
Nc1nc2c(OCF)cccc2c2nc(CN3CCc4cccnc4C3)nn12 [Ex-205, 2-((5,6-dihydro-1,7-naphthyridin-7(8H)-yl)methyl)-7-(fluoromethoxy)-[1,2,4]triazolo[1,5-c]quinazolin-5-amine] | 10.9
COc1cccc2c1nc(N)n1nc(CCN3CCCn4nc(C)cc4C3)nc21 [Ex-60, 7-methoxy-2-(2-(2-methyl-7,8-dihydro-4H-pyrazolo[1,5-a][1,4]diazepin-5(6H)-yl)ethyl)-[1,2,4]triazolo[1,5-c]quinazolin-5-amine] | 2.3
COc1cccc2c1nc(N)n1nc(CCN3Cc4oc(C)nc4C(C)(C)C3)nc21 [Ex-235, 7-Methoxy-2-(2-(2,7,7-trimethyl-6,7-dihydro-oxazolo[5,4-c]pyridin-5(4H)-yl)ethyl)-[1,2,4]triazolo[1,5-c]quinazolin-5-amine, TFA] | 2.8
COc1cccc2c1nc(N)n1nc(CCN3CCn4nc(C(F)(F)F)nc4C3)nc21 [Ex-11] | 2.7
COc1cccc2c1nc(N)n1nc(CN3Cc4ccccc4C(C)(C)C3)nc21 [Ex-163, 2-((4,4-dimethyl-3,4-dihydroisoquinolin-2(1H)-yl)methyl)-7-methoxy-[1,2,4]triazolo[1,5-c]quinazolin-5-amine] | 2.7
COc1cccc2c1nc(N)n1nc(CCN3Cc4ccc(N5CCN(C)CC5)nc4C3)nc21 [Ex-63, 7-methoxy-2-(2-(2-(4-methylpiperazin-1-yl)-5H-pyrrolo[3,4-b]pyridin-6(7H)-yl)ethyl)-[1,2,4]triazolo[1,5-c]quinazolin-5-amine] | 5.8
COc1cccc2c1nc(N)n1nc(CC(C)N3Cc4ccc(F)cc4C3)nc21 (stereo not shown) [Ex-114] | 4.3
COc1cccc2c1nc(N)n1nc(CN3Cc4cnc(C(F)(F)F)nc4C3)nc21 [Ex-152, 7-methoxy-2-((2-(trifluoromethyl)-5H-pyrrolo[3,4-d]pyrimidin-6(7H)-yl)methyl)-[1,2,4]triazolo[1,5-c]quinazolin-5-amine] | 27.8
